For the assay, the target named is O-GlcNAcase (Homo sapiens (Human), UniProt O60502). The assay is described as follows: Determination of KI values for inhibition of O-GlcNAcase activity (pNP-GlcNAc substrate, Dixon plots). As to conditions: PBS pH 7.4, 0.5 mM pNP-GlcNAc, 37° C., linear regression of a Dixon plot. The class given is biochemical. The method, then:
Assay for Determination of […] for Inhibition of O-GlcNAcase Activity
Experimental Procedure for Kinetic Analyses:
Enzymatic reactions are carried out in PBS buffer (pH 7.4) using pNP-GlcNAc as a substrate (0.5 mM) and monitored continuously at 37° C. at 400 nm using a Cary 3E UV-VIS spectrophotometer equipped with a Peltier temperature controller. Reactions are pre-heated in a 500 μL quartz cuvette for approximately 5 minutes followed by addition of 10 μL enzyme via syringe (final enzyme concentration 0.002 mg/mL). Reaction velocities are determined by linear regression of the linear region of the reaction progress curve between the first and third minutes. An inhibitor concentration range of ⅕ to 5 times K1 is used in each case. […] All K1 values are determined using linear regression of Dixon plots.

Structures are written as SMILES.

Sequence of O-GlcNAcase (O60502 whole entry): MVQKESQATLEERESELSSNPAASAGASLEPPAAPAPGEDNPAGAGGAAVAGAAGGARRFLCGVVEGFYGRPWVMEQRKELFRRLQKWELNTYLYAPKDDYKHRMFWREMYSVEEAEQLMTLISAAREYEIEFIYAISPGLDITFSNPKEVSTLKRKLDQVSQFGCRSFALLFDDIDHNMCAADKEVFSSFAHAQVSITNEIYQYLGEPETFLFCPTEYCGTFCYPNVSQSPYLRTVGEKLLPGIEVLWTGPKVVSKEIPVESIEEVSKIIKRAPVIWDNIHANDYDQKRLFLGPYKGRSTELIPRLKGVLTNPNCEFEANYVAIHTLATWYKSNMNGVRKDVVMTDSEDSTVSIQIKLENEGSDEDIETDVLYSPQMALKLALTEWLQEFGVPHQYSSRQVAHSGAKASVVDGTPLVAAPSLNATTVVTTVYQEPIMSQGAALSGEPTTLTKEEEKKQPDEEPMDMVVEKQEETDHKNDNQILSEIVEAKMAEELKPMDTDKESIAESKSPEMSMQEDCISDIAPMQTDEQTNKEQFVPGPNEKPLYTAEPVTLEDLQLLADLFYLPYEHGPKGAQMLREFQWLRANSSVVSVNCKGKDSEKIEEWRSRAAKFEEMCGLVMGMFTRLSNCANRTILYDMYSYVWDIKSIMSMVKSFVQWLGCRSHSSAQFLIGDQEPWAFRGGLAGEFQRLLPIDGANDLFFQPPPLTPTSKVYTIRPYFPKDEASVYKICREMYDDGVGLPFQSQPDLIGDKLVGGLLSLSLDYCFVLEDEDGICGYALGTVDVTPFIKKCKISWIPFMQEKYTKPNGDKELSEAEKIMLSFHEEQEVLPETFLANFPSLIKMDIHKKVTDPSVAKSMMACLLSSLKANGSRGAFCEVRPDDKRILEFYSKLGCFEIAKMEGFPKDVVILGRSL

A word on the Ki: it is a measure of affinity in units of concentration, obtained from inhibition or displacement. The low end stands for higher affinity, the high end for lower affinity. For the compound `CN(C)C1=N[C@@H]2[C@@H](O)[C@H](O)[C@@H](CO)[C@@H]2O1` [Compound 2, (3aR,4R,5R,6R,6aS)-2-(dimethylamino)-6-(hydroxymethyl)-4,5,6,6a-tetrahydro-3aH-cyclopenta[d]oxazole-4,5-diol], the inhibition constant (Ki) was 40 µM.

These data come from US9079868B2, “Selective glycosidase inhibitors and uses thereof” (Simon Fraser University, priority 2008, dated 2015).
